Test results: PubChem BioAssay AID330 (DTP/NCI, 2004)
“And” between values parts separate entries of the source, which are not always exact repeats. Identical values can stand only once. Inconclusive results and toxic doses are left out. The calls were made as follows: active = survival T/C of 150% or more; inactive = T/C below 125% in these data.

Tested on: P388 leukemia ip, CD2F1 mice, survival T/C
Experiment: NCI In Vivo Anticancer Drug Screen. Data for tumor model P388 Leukemia (intraperitoneal) in CD2F1 (CDF1) mice
Settings: endpoint: median survival time, higher = longer survival
Method in brief: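 Mice carrying the transplanted tumor received test compound or vehicle. Survival was recorded in each group, and the value is the treated-group measurement divided by that of the vehicle-treated control group.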

[1] = dose: 100.0 mg/kg/injection, schedule: Q04DX003 (ip), vehicle: saline with Tween-80
[2] = dose: 200.0 mg/kg/injection, schedule: Q04DX003 (ip), vehicle: saline with Tween-80
[3] = dose: 400.0 mg/kg/injection, schedule: Q04DX003 (ip), vehicle: saline with Tween-80
[4] = dose: 100.0 mg/kg/injection, schedule: Q01DX009 (ip), vehicle: saline with Tween-80
[5] = dose: 200.0 mg/kg/injection, schedule: Q01DX009 (ip), vehicle: saline with Tween-80
[6] = dose: 50.0 mg/kg/injection, schedule: Q01DX005 (ip), vehicle: Klucel (hydroxypropylcellulose) (HPC)
[7] = dose: 100.0 mg/kg/injection, schedule: Q01DX005 (ip), vehicle: Klucel (hydroxypropylcellulose) (HPC)
[8] = dose: 200.0 mg/kg/injection, schedule: Q01DX005 (ip), vehicle: Klucel (hydroxypropylcellulose) (HPC)
[9] = dose: 50.0 mg/kg/injection, schedule: Q01DX009 (ip), vehicle: saline with Tween-80

Measured: T/C

CCN(CC)Cc1cc(C)c(O)c(N=Nc2ccc([N+](=O)[O-])c(OC)c2)c1C
inactive: [1] 92 % of control | [2] 99 % of control | [3] 119 % of control

C/C(N)=N/OC(c1ccccc1)(c1ccccc1)c1ccccc1
inactive: dose: 50.0 mg/kg/injection, schedule: Q01DX005 (ip), vehicle: Klucel + Tween-80 94 % of control | dose: 100.0 mg/kg/injection, schedule: Q01DX005 (ip), vehicle: Klucel + Tween-80 90 % of control | dose: 200.0 mg/kg/injection, schedule: Q01DX005 (ip), vehicle: Klucel + Tween-80 93 % of control

O=[N+]([O-])c1cccc(/C=C/C=C/c2cccc(S(=O)(=O)F)c2)c1
inactive: [4] 90 % of control | [5] 86 % of control | dose: 400.0 mg/kg/injection, schedule: Q01DX009 (ip), vehicle: saline with Tween-80 86 % of control

CC(C)(C)C(=N)N
inactive: dose: 12.5 mg/kg/injection, schedule: Q01DX009 (ip), vehicle: saline 100 % of control | dose: 25.0 mg/kg/injection, schedule: Q01DX009 (ip), vehicle: saline 108 % of control | dose: 50.0 mg/kg/injection, schedule: Q01DX009 (ip), vehicle: saline 102 % of control

CCOC(=O)C1=C(C)/C(=C/c2[n-]c(Cl)c(C)c2C(=O)OCC)N=C1C.CCOC(=O)C1=C(C)/C(=C/c2[n-]c(Cl)c(C)c2C(=O)OCC)N=C1C.[Ni+2]
inactive: [6] 102 % of control | [7] 114 % of control | [8] 102 % of control

BrCCCC1OCCO1
inactive: dose: 60.0 mg/kg/injection, schedule: Q01DX005 (ip), vehicle: saline with Tween-80 100 % of control | dose: 120.0 mg/kg/injection, schedule: Q01DX005 (ip), vehicle: saline with Tween-80 100 % of control | dose: 240.0 mg/kg/injection, schedule: Q01DX005 (ip), vehicle: saline with Tween-80 104 % of control

Cc1ccc(O)c(C(c2cc(C)ccc2O)c2cc(C)ccc2O)c1
inactive: dose: 25.0 mg/kg/injection, schedule: Q01DX009 (ip), vehicle: saline with Tween-80 107 % of control | [9] 105 % of control and 113 % of control | [4] 101 % of control

N/C(=C\S(=O)(=O)c1ccccc1)C12CC3CC(CC(C3)C1)C2
inactive: [9] 94 % of control | [4] 94 % of control | [5] 87 % of control

CCCCCCCCOCC(=O)O
inactive: [9] 107 % of control | [4] 94 % of control | [5] 96 % of control

O=C(Cc1ccccc1)c1ccccc1
inactive: [1] 98 % of control | [2] 100 % of control | [3] 100 % of control

COC(=O)C1C2CC3c4c(c5ccc(OC)cc5n4[N+](=O)[O-])CCN3CC2CC(OC(=O)c2cc(OC)c(OC)c(OC)c2)C1OC (centres undefined)
inactive: dose: 12.5 mg/kg/injection, schedule: Q01DX005 (ip), vehicle: Klucel (hydroxypropylcellulose) (HPC) 96 % of control | dose: 25.0 mg/kg/injection, schedule: Q01DX005 (ip), vehicle: Klucel (hydroxypropylcellulose) (HPC) 98 % of control | [6] 104 % of control | [7] 114 % of control | [8] 88 % of control

CC(C)CC(=O)CC(=O)C(C)(C)C.CC(C)CC(=O)CC(=O)C(C)(C)C.CC(C)CC(=O)CC(=O)C(C)(C)C.[Cr]
inactive: dose: 50.0 mg/kg/injection, schedule: Q01DX009 (ip), vehicle: distilled water + alcohol 97 % of control | dose: 100.0 mg/kg/injection, schedule: Q01DX009 (ip), vehicle: distilled water + alcohol 107 % of control | dose: 200.0 mg/kg/injection, schedule: Q01DX009 (ip), vehicle: distilled water + alcohol 103 % of control

Cc1ccc(N2C(=O)CSC2=S)cc1Br
inactive: dose: 50.0 mg/kg/injection, schedule: Q01DX009 (ip), vehicle: suspension in saline 93 % of control | dose: 100.0 mg/kg/injection, schedule: Q01DX009 (ip), vehicle: suspension in saline 105 % of control | dose: 200.0 mg/kg/injection, schedule: Q01DX009 (ip), vehicle: suspension in saline 93 % of control

CCOC1(C)OC2OC(COC(c3ccccc3)(c3ccccc3)c3ccccc3)C(OC(=O)c3ccccc3)C(OC(=O)c3ccccc3)C2O1 (centres undefined)
inactive: dose: 12.5 mg/kg/injection, schedule: Q01DX009 (ip), vehicle: distilled water + Tween-80 98 % of control | dose: 25.0 mg/kg/injection, schedule: Q01DX009 (ip), vehicle: distilled water + Tween-80 90 % of control | dose: 50.0 mg/kg/injection, schedule: Q01DX009 (ip), vehicle: distilled water + Tween-80 99 % of control
